Results: patent US20240190888A1, “SPIRO-CONTAINING DERIVATIVE, AND PREPARATION METHOD THEREFOR AND USE THEREOF” (priority 2021, published 2024)

What was measured:
[1] = molecular target: T1, TAAR1 receptor (Homo sapiens, UniProt Q96RJ0); assay: TAAR1 receptor cAMP agonist test (HEK293 cell line stably expressing TAAR1 receptor); format: cell-based; conditions: for EC50: cAMP agonist assay, HEK293 cells stably expressing TAAR1; for TAAR1 Max Act %: maximal activation rate relative to PEA positive control
T1 construct: expressed in transfected cells
T1 sequence (Q96RJ0 1-339): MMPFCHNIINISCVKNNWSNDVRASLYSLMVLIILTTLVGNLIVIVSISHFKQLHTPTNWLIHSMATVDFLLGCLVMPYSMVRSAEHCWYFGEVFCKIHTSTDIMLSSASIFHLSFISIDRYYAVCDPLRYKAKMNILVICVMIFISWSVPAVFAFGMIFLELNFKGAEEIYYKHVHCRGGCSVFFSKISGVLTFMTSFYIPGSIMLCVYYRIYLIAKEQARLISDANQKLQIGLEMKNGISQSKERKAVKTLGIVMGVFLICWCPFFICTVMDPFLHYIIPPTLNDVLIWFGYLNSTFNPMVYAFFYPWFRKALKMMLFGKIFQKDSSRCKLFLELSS
Method: 1.1 Experimental Materials:
The cAMP detection lit was purchased from Cisbio; the […] cell line stably expressing TAAR1 receptor was constructed by Shanghai Singing Biotechnology Co., Ltd.; IBMX was purchased from Sigma; Phenethylamine (PEA); ProxiPlate-384 well plate was purchased from PerkinElmer. HBSS was purchased from Thermo Fisher Scientific Company.
(§1) (1) Preparation of experimental buffer: 5×stimulation buffer was diluted to 1× with ddH2O, adding IBMX with a final concentration of 0.5 mM, mixing well for later use.
(2) The frozen cells were thawed quickly in a 37° C. water bath, the cell suspension was washed with HBSS buffer, centrifuging at 200×g to remove the frozen storage solution, the pellet was resuspended with an appropriate amount of experimental buffer, taking 20 μL for counting with a cell counter, and diluting to 1.5×10^6 cells/mL.
(3) 5 μL of cell suspension (1.5×10^4 cells per well) was added to the ProxiPlate-384 well plate.
(4) The compound to be tested was diluted in the experimental buffer by gradient, and 5 μL was transferred to the reaction plate using Bravo, 5 μL experimental buffer was put in each negative control well, and 5 μL PEA (final concentration 10^−2M) was put in each positive control well.
(5) Incubating at 37° C. for 1 hour.
(6) 10 ELL of detection reagent was added to the reaction plate, incubating at room temperature for 1 hour in dark.
(§2) Activation rate (activity %)=(negative control ratio-compound ratio)/(negative control ratio-positive control ratio)×100%
The EC50 values of the compounds were calculated using the four-parameter fitting model log(agonist)vs.response—Variable slope (four parameters) in GraphPad Prism.

[2] = molecular target: T2, 5-HT1A receptor (Homo sapiens, UniProt P08908); assay: 5-HT1A receptor cAMP agonist test (HEK293 cell line stably expressing 5-HT1A receptor); format: cell-based; conditions: for EC50: cAMP agonist assay with forskolin, HEK293 cells stably expressing 5-HT1A; for 5-HT1A Max Act %: maximal activation rate relative to Serotonin positive control
T2 construct: expressed in transfected cells
T2 sequence (P08908 1-422): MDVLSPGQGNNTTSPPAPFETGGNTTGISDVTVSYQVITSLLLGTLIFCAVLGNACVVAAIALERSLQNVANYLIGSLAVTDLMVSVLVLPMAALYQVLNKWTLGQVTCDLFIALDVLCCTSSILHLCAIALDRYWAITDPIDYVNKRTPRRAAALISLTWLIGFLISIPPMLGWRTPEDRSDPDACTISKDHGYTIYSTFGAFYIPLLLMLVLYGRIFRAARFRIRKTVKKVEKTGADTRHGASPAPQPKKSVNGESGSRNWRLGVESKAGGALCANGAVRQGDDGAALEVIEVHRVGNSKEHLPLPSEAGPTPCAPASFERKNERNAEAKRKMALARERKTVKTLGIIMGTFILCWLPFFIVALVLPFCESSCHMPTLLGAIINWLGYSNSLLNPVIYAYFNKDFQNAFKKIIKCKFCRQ
Method: 2.1 Experimental Materials:
The cAMP detection kit was purchased from Cisbio; the HEK293 cell line stably expressing 5-HT1A receptor was constructed by Shanghai Shujing Biotechnology Co., Ltd.; Serotonin, Forskolin and IBMX were purchased from Sigma; ProxiPlate-384-well plates was purchased from PerkinElmer; HBSS was purchased from Thermo Fisher Scientific.
as §1
(2) The cultured cells were digested with trypsin, and the cell suspension was washed with HBSS buffer after the digestion was terminated, centrifuging to remove the culture medium at 200×g; the precipitate was resuspended with an appropriate amount of experimental buffer, taking 20 μL for counting with a cell counter, and diluting to 0.4×10^6 cells/mL.
(3) 5 μL cell suspension (2×10^3 cells per well) was added to ProxiPlate-384 well plate.
(4) The compound to be tested was diluted in the experimental buffer by gradient, and 5 μL was transferred to the reaction plate using Bravo, 5 μL experimental buffer was put in each negative control well, and 5 μL Serotonin (final concentration 10^−6 M) was put in each positive control well.
(5) Incubating at room temperature for 15 minutes.
(6) Forskolin (final concentration 1.5×10^−7M) was added to the reaction plate using TecanD300e picoliter micro-dosing system.
(7) Incubating at room temperature for 45 minutes.
(8) 10 μL detection reagent was added to the reaction plate, incubating at room temperature for 1 hour in dark.
as §2
The EC50 values of the compounds were calculated using the four-parameter fitting model log(agouist)vs. response—Variable slope (four parameters) in Graph Pad Prism.

[3] = tested on: high spontaneous activity induced by MK-801; assay: Inhibition of high spontaneous activity induced by MK-801 in mice; format: in vivo; conditions: male C57Bl/6J mice, compound p.o. 30 min before MK-801 0.3 mg/kg i.p.
Method: 3.1 Experimental Materials:
Compounds to be tested: compounds in the examples of the present application, self-made.
(§3) Experimental animals: 18-22 g male C57Bl/6J mice, purchased from Shanghai Slack Experimental Animal Co., Ltd.
3.2.1 Grouping of animals: before the start of the experiment, animals were randomly grouped according to body weight. 3.2.2 Animal adaptation: before the experiment, the mice were first adapted to the experimental environment for at least 1 hour. That is, the animals were transferred from the breeding room to the laboratory and moved freely in the cage.
Drug preparation: taking the compound to be tested, adding pure water and performing ultrasonication.
The animals were randomly divided into blank group, model group, and administration group according to body weight, 9 mice % group, and the detailed administration information is shown in the following table:
T-30 min oral administration of compound: compound to be tested or solvent (pure water) was administered orally by gavage, and put into test box (test box size length*width*height=27*27*40 cm) immediately after administration, recording the spontaneous activity of the mice within 30 minutes.
The blank control group was injected with normal saline.
3.2.4 Data Recording and Analysis.
(§4) The activities of these animals (movement distance in the test box) were automatically recorded by the camera, and analyzed with ANY MAZE software, and the ED50 values were calculated.

[4] = tested on: high spontaneous activity induced by PCP; assay: Inhibition of high spontaneous activity induced by PCP in mice; format: in vivo; conditions: male C57Bl/6J mice, compound p.o. 30 min before PCP 5 mg/kg i.p.
Excerpt: Compounds to be tested: compounds of the examples of the present application, self-made.
Phencyclidine hydrochloride (PCP): purchased from Shanghai Yuansi Standard Science Technology Co., Ltd., specification: 5 g.
as §3
That is, animals were transferred from the feeding room to the laboratory, and moved freely in the cage.
The animals were randomly divided into blank group, model group, and administration group according to body weight, 9 mice/group, and the detailed administration information is shown in the following table:
T0 min intraperitoneal injection of modeling drug: 30 minutes after compound administration, the mice were taken out, and administered with PCP (5 mg/kg) by intraperitoneal injection. The blank control group was injected with pure water.
as §4

| Structure (SMILES) | EC50 [1] [nM] | TAAR1 Max Act % [1] [%] | EC50 [2] [nM] | 5-HT1A Max Act % [2] [%] | ED50 ([3]; Mus musculus, movement distance over 150 min, read-out: ED50 (half effective dose)) [mg/kg] | MED (minimum effective dose) [3] [mg/kg] | MED (minimum effective dose) [4] [mg/kg] |
| --- | --- | --- | --- | --- | --- | --- | --- |
| CNC[C@@H]1OCC2(CC2)c2ccsc21 (single isomer, unassigned) [Example 8-S] | 704 | 96.1 | 903 | 90.7 | 0.36 | 0.3 | 0.3 |
| CNC[C@@H]1OCC2(CC2)c2sccc21 (single isomer, unassigned) [Example 9-R] |  |  |  |  |  | 10 | 0.1 |
| CNC[C@H]1OCC2(CC2)c2sccc21 (single isomer, unassigned) [Example 9-S] | 795 | 95.8 |  |  |  |  |  |
| CNCC1OCC2(CCC2)c2ccsc21 (stereo not drawn) [Example 2, 1-(5′H,7′H-spiro[cyclobutane-1,4′-thieno[2,3c]pyran]-7′-yl)-N-methylmethylamine] |  |  | 257 | 108.9 |  |  |  |
| CNCC1OCC2(CC2)c2c(C)csc21 (stereo not drawn) [Example 7, 1-(3′-methyl-5′H,7′H-Spiro[cyclopropane-1,4′-thieno[2,3-c]pyran]-7′-yl)-N-methylmethylamine] |  |  | 394 | 93.4 |  |  |  |
| CNCC1OCC2(CC2)c2ccsc21 (stereo not drawn) [Example 8, 1-(5′H,7′H-Spiro[cyclopropane-1,4-thieno[2,3-c]pyran]-7′-yl)-N-methylmethylamine] | 1630 | 96.6 | 1540 | 91.6 |  |  |  |
| CNCC1OCC2(CC2)c2sccc21 (stereo not drawn) [Example 9, 1-(4′H,6′H-spiro[cyclopropane-1,7′-thieno[3,2-c]pyran]-4′-yl)-N-methylmethylamine] | 1670 | 95.5 | 2440 | 92.7 |  |  |  |
| [2H]C([2H])([2H])NCC1OCC2(CC2)c2ccsc21 (stereo not drawn) [Example 15, N-((5′H,7′H-Spiro[cyclopropane-1,4′-thieno[2,3-c]pyran]-7′-yl)methyl)methane-d3-amine] | 1730 | 93.3 | 2680 | 93.7 |  |  |  |
| CCNCC1OCC2(CC2)c2ccsc21 (stereo not drawn) [Example 16, N-((5′H,7′H-spiro[cyclopropane-1,4′-thieno[2,3-c]pyran]-7′-yl)methyl)ethylamine] |  |  | 1380 | 115.6 |  |  |  |
| c1cc2c(s1)C(CN1CCC1)OCC21CC1 (stereo not drawn) [Example 23, 1-((5′H,7′H-Spiro[cyclopropane-1,4′-thieno[2,3-c]pyran]-7′-yl)methyl)azetidine] |  |  | 5510 | 75.5 |  |  |  |
| [2H]C([2H])([2H])NCC1OCC2(CC2)c2sccc21 (stereo not drawn) [Example 32, N-((4′,6′-dihydrospiro[cyclopropane-1,7′-thieno[3,2-c]pyran]-4′-yl)methyl)methyl-D3-amine] | 1320 | 97.7 | 1880 | 80.5 |  |  |  |
| [2H]C([2H])([2H])NC[C@@H]1OCC2(CC2)c2sccc21 [Example 32-R, (R)—N-((4′,6′-dihydrospiro[cyclopropane-1,7′-thieno[3,2-c]pyran]-4′-yl)methyl)methyl-D3-amine] |  |  | 1670 | 86.3 |  |  |  |
| [2H]C([2H])([2H])NC[C@H]1OCC2(CC2)c2sccc21 [Example 32-S, (S)—N-((4′,6′-dihydrospiro[cyclopropane-1,7′-thieno[3,2-c]pyran]-4′-yl)methyl)methyl-D3-amine] | 806 | 97.1 |  |  |  |  |  |
